How the values were obtained:
[1] = tested on: MonoMac1; assay: Combination with ATO in AML cell lines, viability and Bliss synergy; type: cell-based; conditions: lower maps (MonoMac1), 48 h
Experimental: (§1) First, 2 × 10^5 (72 h assays in cell lines (Supplementary File S1)), 3 × 10^5 (48 h assays in cell lines) or 7.5 × 10^5 (primary AML, healthy donor buffy coats) cells per mL were cultured in 96-well plates, and all drugs were added at the indicated concentrations. In α-tocopherol experiments, cells were treated with growing concentrations of α-tocopherol and EDK drugs for 48 h. In the NAC and 3MA experiments, treatment was simultaneous with EDK compounds. In glucose deprivation experiments, cells were cultivated with a standard medium (glucose high, 2 g/L), a standard medium without glucose, or a standard medium with galactose (2 g/L) and without glucose. Cell viability was measured via 7-AAD (eBioscience) exclusion and Hoechst33342 (Sigma-Aldrich, St. Louis, MO, USA) positivity staining via flow cytometry, and the cell count was obtained through volume. In the experiments with the primary cells, analyses were performed inside the blast population as detected via blast gates (CD45^low SSC^int). For solid tumor cell lines, viability was analyzed using CellTiter-Glo® Luminescent Cell Viability Assay (Promega).
(§2) Synergy was calculated using SynergyFinder 2.0 with the Bliss reference model.

[2] = tested on: HL60; assay: as above; type: cell-based; conditions: upper maps (HL60), 48 h
Experimental: as §1, §2

[3] = tested on: K562; assay: Pancancer cell line panel viability; type: cell-based; conditions: 10 µM, 48 h
Experimental: as §1
(§3) AML cell lines and cell cultures
(§4) Cell lines HL-60 (ACC-3), KG-1 (ACC-14), MonoMac-1 (ACC-252), Kasumi-1 […]
(§5) obtained from DSMZ. Cell lines THP-1 (TIB-202TM), MCF-7 (HTB-22™), MDA- […]
(§6) 3216™) and HS-5 (CRL-11882™) were obtained from ATCC. HBL-2 cell line was kindly supplied by Dr. Pérez-Galán (IDIBAPS, Barcelona, Spain). SKM-1 and U937 were kindly provided by Dr. Marcus Buschbeck (IJC, Badalona, Spain). All cell lines were cultured in the conditions indicated by the providers, and were tested for mycoplasma on a monthly basis.
(§7) All drugs were resuspended in H2O (Thermo Fischer Scientific), DMSO (Sigma-Aldrich) or ethanol (VWR) according to manufacturer’s specifications. - tocopherol, 3-methyladenine (3MA), arsenic trioxide (ATO) and N-acetyl-L-cysteine (NAC) were purchased from Sigma Aldrich. Chloroquine diphosphate was purchased from Merck. Etoposide and ionomycin were purchased from […]
(§8) (1 picture or pasted object on this page, not shown here)

[4] = tested on: MDA-MB-231; assay: Pancancer cell line panel viability; type: cell-based; conditions: 10 µM, 48 h
Experimental: as §1, §3, §4, §5, §6, §7, §8

[5] = tested on: HBL2; assay: Pancancer cell line panel viability; type: cell-based; conditions: 10 µM, 48 h
Experimental: as §1, §3, §4, §5, §6, §7, §8

[6] = tested on: MOLT4; assay: Pancancer cell line panel viability; type: cell-based; conditions: 10 µM, 48 h
Experimental: as §1, §3, §4, §5, §6, §7, §8

[7] = tested on: HCT-15; assay: Pancancer cell line panel viability; type: cell-based; conditions: 10 µM, 48 h
Experimental: as §1, §3, §4, §5, §6, §7, §8

[8] = tested on: M14; assay: Pancancer cell line panel viability; type: cell-based; conditions: 10 µM, 48 h
Experimental: as §1, §3, §4, §5, §6, §7, §8

[9] = tested on: RAMOS; assay: Pancancer cell line panel viability; type: cell-based; conditions: 10 µM, 48 h
Experimental: as §1, §3, §4, §5, §6, §7, §8

[10] = tested on: PC-3; assay: Pancancer cell line panel viability; type: cell-based; conditions: 10 µM, 48 h
Experimental: as §1, §3, §4, §5, §6, §7, §8

[11] = tested on: HCT-116; assay: Pancancer cell line panel viability; type: cell-based; conditions: 10 µM, 48 h
Experimental: as §1, §3, §4, §5, §6, §7, §8

[12] = tested on: HOP62; assay: Pancancer cell line panel viability; type: cell-based; conditions: 10 µM, 48 h
Experimental: as §1, §3, §4, §5, §6, §7, §8

[13] = tested on: GRANTA; assay: Pancancer cell line panel viability; type: cell-based; conditions: 10 µM, 48 h
Experimental: as §1, §3, §4, §5, §6, §7, §8

[14] = tested on: CAKI; assay: Pancancer cell line panel viability; type: cell-based; conditions: 10 µM, 48 h
Experimental: as §1, §3, §4, §5, §6, §7, §8

[15] = tested on: SR; assay: Pancancer cell line panel viability; type: cell-based; conditions: 10 µM, 48 h
Experimental: as §1, §3, §4, §5, §6, §7, §8

[16] = tested on: NCI; assay: Pancancer cell line panel viability; type: cell-based; conditions: 10 µM, 48 h
Experimental: as §1, §3, §4, §5, §6, §7, §8

[17] = tested on: primary AML samples (lineage-depleted umbilical cord blood cells as healthy counterpart); assay: Clonogenicity assay; type: cell-based, human
Experimental: 1,000 cells of AML cell lines or 50,000 primary cells (both AML and lin-depleted UCB) were treated at the indicated concentration for 18 h, and cultured in 1 mL of MethoCult H4034 Optimum (StemCell Technologies, Vancouver, BC, Canada).
Colonies were screened based on morphology and cellularity at day 7 (cell lines) […]
Calcium mobilization assay
1 x 10^6 cells per mL were loaded for 30’ at 37 °C with the Fura-2-AM probe (Thermo Fisher) at a final 2 µM concentration in pre-warmed calcium- and magnesium-free Hanks BSA solution. Cells were then washed and resuspended in Hanks BSA solution with calcium and magnesium at 3 x 10^5 cells per mL. In parallel, 50µL of drugs in Hanks BSA solution with calcium and magnesium were added to 96-well black wall clear bottom plates and background fluorescence was read at Ex340/Em508 and Ex380/Em508. Cells were then added to the plate (50µL/well) and fluorescence was acquired at indicated timepoints using a Synergy HT Multi-Detection Microplate Reader (BioTek). For the analysis, all values were subtracted their corresponding background fluorescence, and the ratio 340/380 was calculated. Finally, ratios were normalized to vehicle-treated […]
Semi-Quantitative Real Time PCR

[18] = tested on: TFEB; assay: TFEB promoter-luciferase reporter; type: cell-based; conditions: HEK293T; 10 and 20 µM, 24 h
Experimental: We transfected 2.5 × 10^5 HEK-293T cells per condition using the jetPEI DNA transfection reagent (Polyplus) with TFEB promoter-luciferase reporter Addgene#66801. Then, at 24 h post-transfection, cells were treated at the indicated conditions, and the 48 h post-transfection luminescence of lysed cells was analyzed according to the manufacturer’s specifications.

[19] = tested on: U937; assay: Dose-response viability curves in AML cell lines; type: cell-based; conditions: Homo sapiens, U-937, 48 h
Experimental: as §1

[20] = tested on: Kasumi-1; assay: Dose-response viability curves in AML cell lines; type: cell-based; conditions: Homo sapiens, 48 h
Experimental: as §1

[21] = tested on: MonoMac1; assay: Dose-response viability curves in AML cell lines; type: cell-based; conditions: Mono-Mac-1, 48 h
Experimental: as §1

[22] = tested on: KG1; assay: Dose-response viability curves in AML cell lines; type: cell-based; conditions: Homo sapiens, KG-1, 48 h
Experimental: as §1

[23] = tested on: HL60; assay: Dose-response viability curves in AML cell lines; type: cell-based; conditions: Homo sapiens, HL-60, 48 h
Experimental: as §1

[24] = tested on: SKM-1; assay: Dose-response viability curves in AML cell lines; type: cell-based; conditions: Homo sapiens, 48 h
Experimental: as §1

[25] = tested on: THP1; assay: Dose-response viability curves in AML cell lines; type: cell-based; conditions: Homo sapiens, THP-1, 48 h
Experimental: as §1

SMILES: CN1CCC(=C2c3ccccc3-c3c2sc2ccccc32)CC1 [EDK-87]
- Effectivity (%Viability reduction) ([1]; EDK compound alone 1 µM): 29%
- Effectivity (%Viability reduction) ([1]; EDK compound alone 3 µM): 33%
- Effectivity (%Viability reduction) ([1]; EDK compound alone 10 µM): 61%
- Effectivity (%Viability reduction) ([2]; EDK compound alone 1 µM): 18%
- Effectivity (%Viability reduction) ([2]; EDK compound alone 3 µM): 30%
- Effectivity (%Viability reduction) ([2]; EDK compound alone 10 µM): 84%
- # Live cells refer to control [3]: 87%
- # Live cells refer to control [4]: 47%
- # Live cells refer to control [5]: 58%
- # Live cells refer to control [6]: 25%
- # Live cells refer to control [7]: 52%
- # Live cells refer to control [8]: 21%
- # Live cells refer to control [9]: 74%
- # Live cells refer to control [10]: 65%
- # Live cells refer to control [11]: 64%
- # Live cells refer to control [12]: 44%
- # Live cells refer to control [13]: 35%
- # Live cells refer to control [14]: 58%
- # Live cells refer to control [15]: 42%
- # Live cells refer to control [16]: 45%
- clonogenicity, effect in AML ([17]; primary AML samples): 77.9% ± 9.2
- therapeutic window (clonogenicity) ([17]; primary AML vs lineage-depleted umbilical cord blood): 3.2
- TFEB activity (reporter) [18]: activation of TFEB activity
- EC50 [19]: 6.9 ± 0.07 µM
- EC50 [20]: 6.3 ± 0.35 µM
- EC50 [21]: 8.6 ± 1.4 µM
- EC50 [22]: 7 ± 1.2 µM
- EC50 [23]: 6.2 ± 0.9 µM
- EC50 [24]: 8.1 ± 1.8 µM
- EC50 [25]: 11.2 ± 0.01 µM

From publication PMC10047683, “A Novel Family of Lysosomotropic Tetracyclic Compounds for Treating Leukemia” (Cancers, 2023)
